Assays:
[1] = molecular target: T1, Cucumis melo agglutinin (CMA1) (Cucumis melo, UniProt A0A1S4E5V9); test: X-ray crystal structure ([…] Å); SPR competition on GalNAc chip; assay type: binding
T1 construct: gene LOC107992255; full-length CMA1, both CBM13 domains; probably CHO-S expressed with C-terminal His6

[2] = molecular target: T2, Cucumis melo agglutinin (CMA1) (Cucumis melo, UniProt A0A1S4E5V9, L33V); test: X-ray crystal structure ([…] Å) and ITC; thermal shift with full-length protein; assay type: binding
T2 construct: gene LOC107992255; CMA1-Nter, N-terminal domain (6–132 in mature protein)
T2 sequence (A0A1S4E5V9 entry or part of it L33V): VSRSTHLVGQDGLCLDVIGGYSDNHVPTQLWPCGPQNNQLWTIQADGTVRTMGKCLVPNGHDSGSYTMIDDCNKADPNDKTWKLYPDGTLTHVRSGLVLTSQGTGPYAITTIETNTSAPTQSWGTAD

T1 sequence (A0A1S4E5V9 entry or part of it): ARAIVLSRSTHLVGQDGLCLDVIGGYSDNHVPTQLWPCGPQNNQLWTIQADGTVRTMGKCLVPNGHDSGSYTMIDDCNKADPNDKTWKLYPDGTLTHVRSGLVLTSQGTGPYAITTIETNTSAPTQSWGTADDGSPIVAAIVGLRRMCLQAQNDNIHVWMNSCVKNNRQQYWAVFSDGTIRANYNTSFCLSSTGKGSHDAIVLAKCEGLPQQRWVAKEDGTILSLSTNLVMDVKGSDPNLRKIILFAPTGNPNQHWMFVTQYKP

CC(=O)N[C@@H]1[C@@H](O)[C@H](O[C@@H]2O[C@H](CO)[C@H](O)[C@H](O)[C@H]2O)[C@@H](CO)O[C@@H]1O [LacNAc, N-acetyllactosamine]
IC50 [1]: 1400 nM

CC(=O)N[C@@H]1[C@@H](O)[C@@H](O)[C@@H](CO)O[C@H]1O [GalNAc]
Kd [2]: 940 µM
